Like-named read-outs stand apart in the source and are kept apart here.
How the values were obtained:
[1] = target: CB2 receptor (Homo sapiens, UniProt P34972); assay: [3H]CP-55,940 radioligand competition binding, CB2; design: host or cells: cell membrane preparations; settings: for SI: selectivity index for CB2: Ki(CB1)/Ki(CB2) ratio
[2] = target: T1, CB1 receptor (Homo sapiens, UniProt P21554); assay: [3H]CP-55,940 radioligand competition binding, CB1
T1 construct: host or cells: cell membrane preparations
T1 sequence (P21554 whole entry): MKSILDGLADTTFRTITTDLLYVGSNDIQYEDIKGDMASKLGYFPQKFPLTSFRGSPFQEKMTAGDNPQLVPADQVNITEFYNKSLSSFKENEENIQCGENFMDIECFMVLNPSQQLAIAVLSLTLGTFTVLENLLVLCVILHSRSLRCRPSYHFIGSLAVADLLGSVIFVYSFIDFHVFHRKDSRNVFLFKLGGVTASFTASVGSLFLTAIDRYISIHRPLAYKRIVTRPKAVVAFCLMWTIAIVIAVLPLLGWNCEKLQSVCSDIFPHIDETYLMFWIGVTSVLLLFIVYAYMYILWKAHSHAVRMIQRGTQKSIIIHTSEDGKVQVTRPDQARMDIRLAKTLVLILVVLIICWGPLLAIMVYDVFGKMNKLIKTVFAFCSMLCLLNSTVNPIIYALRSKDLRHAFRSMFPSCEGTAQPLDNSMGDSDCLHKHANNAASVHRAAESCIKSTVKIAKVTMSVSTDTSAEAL

[3] = [3H]CP-55,940 displacement, read-out: Ki (CB2)
[4] = [3H]CP-55,940 displacement, read-out: Ki (CB1)

CB2 receptor, sequence (P34972 whole entry): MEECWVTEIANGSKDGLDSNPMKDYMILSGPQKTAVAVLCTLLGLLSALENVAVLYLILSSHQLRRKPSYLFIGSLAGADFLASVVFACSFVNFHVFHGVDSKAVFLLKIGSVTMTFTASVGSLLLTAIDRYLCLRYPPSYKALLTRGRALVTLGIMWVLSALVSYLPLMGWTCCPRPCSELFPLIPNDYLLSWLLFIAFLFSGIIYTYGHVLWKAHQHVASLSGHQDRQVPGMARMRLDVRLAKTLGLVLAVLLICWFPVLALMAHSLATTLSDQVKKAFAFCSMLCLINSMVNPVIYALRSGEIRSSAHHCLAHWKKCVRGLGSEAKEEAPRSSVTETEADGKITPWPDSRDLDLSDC

Ki [1, 3]	Ki [2, 4]	SI: selectivity index for CB2 [1]	SMILES	Ki [1]	Ki [2]
2640 nM	> 20000 nM	–	CCN(CC)c1ccc(C(NC(=O)C(C)C)NC(=O)C(C)C)cc1 [Compound 50, N,N′-((4-(diethylamino)phenyl)methylene)bis(2-methylpropanamide)]	–	–
164 nM	> 20000 nM	121	CCN(CC)c1ccc(CN(C(=O)C2CCCCC2)c2ccc(Cl)cc2)cc1 [Compound 89, N-(4-Chlorophenyl)-N-(4-(diethylamino)benzyl)cyclohexanecarboxamide]	–	–
4.3 nM	3360 nM	782	CCN(CC)c1ccc(CN(c2ccc(C)cc2)S(=O)(=O)c2ccc(C(C)C)cc2)cc1 [Compound 96, N-(4-(Diethylamino)benzyl)-4-isopropyl-N-(p-tolyl)benzenesulfonamide]	–	–
–	–	–	CCN(CC)c1ccc(CN(C23CC4CC(CC(C4)C2)C3)S(=O)(=O)c2ccccc2)cc1 [Compound 56, N-((3s,5s,7s)-Adamantan-1-yl)-N-(4-(diethylamino)benzyl)benzenesulfonamide]	84 nM	11000 nM
494 nM	109 nM	–	Cc1ccc(C(NC(=O)Cc2ccccc2)NC(=O)Cc2ccccc2)cc1 [Compound 8, N,N′-(p-tolylmethylene)bis(2-phenylacetamide)]	–	–
9320 nM	> 20000 nM	–	O=C(Cc1ccccc1)NC(CCc1ccccc1)NC(=O)Cc1ccccc1 [Compound 45, N,N′-(3-Phenylpropane-1,1-diyl)bis(2-phenylacetamide)]	–	–
36 nM	6620 nM	183	CCN(CC)c1ccc(CN(c2ccc(Cl)cc2)S(=O)(=O)c2ccc(Cl)cc2)cc1 [Compound 83, 4-Chloro-N-(4-chlorophenyl)-N-(4-(diethylamino)benzyl)benzenesulfonamide]	–	–
–	> 20000 nM	–	CCN(CC)c1ccc(CN(C23CC4CC(CC(C4)C2)C3)S(=O)(=O)c2ccc(C)cc2)cc1 [Compound 60, N-((3s,5s,7s)-Adamantan-1-yl)-N-(4-(diethylamino)benzyl)-4-methylbenzenesulfonamide]	–	–
72 nM	> 20000 nM	>277	CCN(CC)c1ccc(CN(C(=O)Cc2ccccc2)c2ccc(C)cc2)cc1 [Compound 97, N-(4-(Diethylamino)benzyl)-2-phenyl-N-(p-tolyl)acetamide]	–	–
2.8 nM	866 nM	–	CCN(CC)c1ccc(CN(c2ccc(Cl)cc2)S(=O)(=O)c2cccc(C)c2)cc1 [Compound 86, N-(4-Chlorophenyl)-N-(4-(diethylamino)benzyl)-3-methylbenzenesulfonamide]	–	–
–	> 20000 nM	–	O=C(Cc1ccccc1)NC(Cc1ccccc1)NC(=O)Cc1ccccc1 [Compound 44, N,N′-(2-Phenylethane-1,1-diyl)bis(2-phenylacetamide)]	–	–
–	1770 nM	–	CCN(CC)c1ccc(CN(c2ccc(Cl)cc2)S(=O)(=O)c2ccccc2)cc1 [Compound 81, N-(4-Chlorophenyl)-N-(4-(diethylamino)benzyl)benzenesulfonamide]	–	–
3.4 nM	514 nM	151	CCN(CC)c1ccc(CN(c2ccc(C)cc2)S(=O)(=O)c2ccccc2)cc1 [Compound 90, N-(4-(Diethylamino)benzyl)-N-(p-tolyl)benzenesulfonamide]	–	–
–	> 20000 nM	–	CCN(CC)c1ccc(CN(C(=O)Cc2ccc(Cl)cc2)C23CC4CC(CC(C4)C2)C3)cc1 [Compound 65, N-((3s,5s,7s)-Adamantan-1-yl)-2-(4-chlorophenyl)-N-(4-(diethylamino)benzyl)acetamide]	–	–
60 nM	> 20000 nM	>333	CCN(CC)c1ccc(CN(C(=O)Cc2ccccc2)C23CC4CC(CC(C4)C2)C3)cc1 [Compound 66, N-((3s,5s,7s)-Adamantan-1-yl)-N-(4-(diethylamino)benzyl)-2-phenylacetamide]	–	–
5.8 nM	218 nM	37	CCN(CC)c1ccc(CN(c2ccc(C)cc2)S(=O)(=O)c2cccc(C)c2)cc1 [Compound 95, N-(4-(Diethylamino)benzyl)-3-methyl-N-(p-tolyl)benzenesulfonamide]	–	–

Ki [1, 3]	Ki [2, 4]	SI: selectivity index for CB2 [1]	SMILES	Ki [1]	Ki [2]
–	> 20000 nM	–	O=C(Cc1ccccc1)NC(/C=C/c1ccccc1)NC(=O)Cc1ccccc1 [Compound 46, (E)-N,N′-(3-Phenylprop-2-ene-1,1-diyl)bis(2-phenylacetamide)]	–	–
5680 nM	–	–	O=C(Cc1ccccc1)NC(/C=C/c1ccccc1)NC(=O)Cc1ccccc1 [Compound 39, (E)-N,N′-(3-phenylprop-2-ene-1,1-diyl)bis(2-phenylacetamide)]	–	–
222 nM	202 nM	0.9	CCN(CC)c1ccc(CN(C(=O)C2CCCCC2)c2ccc(C)cc2)cc1 [Compound 99, N-(4-(Diethylamino)benzyl)-N-(p-tolyl)cyclohexanecarboxamide]	–	–
1280 nM	–	–	CCCCCCCN(Cc1ccc(N(CC)CC)cc1)C(=O)c1ccc(N(C)C)cc1 [Compound 78, N-(4-(Diethylamino)benzyl)-4-(dimethylamino)-N-heptylbenzamide]	–	–
5.6 nM	858 nM	153	CCN(CC)c1ccc(CN(c2ccc(C)cc2)S(=O)(=O)c2ccc(F)cc2)cc1 [Compound 91, N-(4-(Diethylamino)benzyl)-4-fluoro-N-(p-tolyl)benzenesulfonamide]	–	–
2300 nM	–	–	CCCCCCCN(Cc1ccc(N(CC)CC)cc1)S(=O)(=O)c1cccc(C)c1 [Compound 68, N-(4-(Diethylamino)benzyl)-N-heptyl-3-methylbenzenesulfonamide]	–	–
20000 nM	–	130	CCN(CC)c1ccc(CNC23CC4CC(CC(C4)C2)C3)cc1 [B, (3s,5s,7s)-N-(4-(Diethylamino)benzyl)adamantan-1-amine]	–	–
3550 nM	> 20000 nM	–	CCN(CC)c1ccc(C(NC(=O)C(C)(C)C)NC(=O)C(C)(C)C)cc1 [Compound 51, N,N′-((4-(diethylamino)phenyl)methylene)bis(2,2-dimethylpropanamide)]	–	–
37 nM	137 nM	3.7	CCN(CC)c1ccc(CN(c2ccc(Cl)cc2)S(=O)(=O)c2ccc(C)cc2)cc1 [Compound 85, N-(4-Chlorophenyl)-N-(4-(diethylamino)benzyl)-4-methylbenzenesulfonamide]	–	–
167 nM	> 20000 nM	>119	CCN(CC)c1ccc(C(NC(=O)C=Cc2ccccc2)NC(=O)C=Cc2ccccc2)cc1 (stereo not drawn) [Compound 48, N,N′-((4-(Diethylamino)phenyl)methylene)bis(3-phenylacrylamide)]	–	–
212 nM	–	–	CCCCCCCN(Cc1ccc(N(CC)CC)cc1)C(=O)C1CCCCC1 [Compound 79, N-(4-(Diethylamino)benzyl)-N-heptylcyclohexanecarboxamide]	–	–
222 nM	–	–	CCN(CC)c1ccc(CN(c2ccc(Cl)cc2)S(=O)(=O)c2ccc(C(C)C)cc2)cc1 [Compound 87, N-(4-Chlorophenyl)-N-(4-(diethylamino)benzyl)-4-isopropylbenzenesulfonamide]	–	–
18200 nM	–	–	CCCCCC(NC(=O)Cc1ccccc1)NC(=O)Cc1ccccc1 [Compound 41, N,N′-(hexane-1,1-diyl)bis(2-phenylacetamide)]	–	–
5190 nM	–	–	CCCCCCCN(Cc1ccc(N(CC)CC)cc1)S(=O)(=O)c1ccc(OC)cc1 [Compound 70, N-(4-(Diethylamino)benzyl)-N-heptyl-4-methoxybenzenesulfonamide]	–	–
783 nM	–	>26	COc1ccc(C(NC(=O)Cc2ccccc2)NC(=O)Cc2ccccc2)cc1 [Compound 10, N,N′-((4-methoxyphenyl)methylene)bis(2-phenylacetamide)]	–	–
> 20000 nM	–	–	Cc1ccc(C(NC(=O)Cc2ccc(C(F)(F)F)cc2)NC(=O)Cc2ccc(C(F)(F)F)cc2)cc1 [Compound 34, N,N′-(p-tolylmethylene)bis(2-(4-(trifluoromethyl)phenyl)acetamide)]	–	–

SMILES	Ki [1, 3]	Ki [2, 4]	SI: selectivity index for CB2 [1]	Ki [1]	Ki [2]
CCN(CC)c1ccc(CN(C(=O)C2CCCCC2)C23CC4CC(CC(C4)C2)C3)cc1 [Compound 63, N-((3s,5s,7s)-Adamantan-1-yl)-N-(4-(diethylamino)benzyl)cyclohexanecarboxamide]	–	> 20000 nM	>571	35 nM	–
CCN(CC)c1ccc(CN(C23CC4CC(CC(C4)C2)C3)S(=O)(=O)c2ccc(Cl)cc2)cc1 [Compound 58, N-((3s,5s,7s)-Adamantan-1-yl)-4-chloro-N-(4-(diethylamino)benzyl)benzenesulfonamide]	173 nM	2030 nM	11	–	–
CCN(CC)c1ccc(CN(C23CC4CC(CC(C4)C2)C3)S(=O)(=O)c2ccc(F)cc2)cc1 [Compound 57, N-((3s,5s,7s)-Adamantan-1-yl)-N-(4-(diethylamino)benzyl)-4-fluorobenzenesulfonamide]	–	4270 nM	–	25 nM	–
CCN(CC)c1ccc(CN(c2ccc(Cl)cc2)S(=O)(=O)c2ccc(F)cc2)cc1 [Compound 82, N-(4-Chlorophenyl)-N-(4-(diethylamino)benzyl)-4-fluorobenzenesulfonamide]	73 nM	1130 nM	15	–	–
CCN(CC)c1ccc(CN(C(=O)Cc2ccc(Cl)cc2)c2ccc(C)cc2)cc1 [Compound 98, 2-(4-Chlorophenyl)-N-(4-(diethylamino)benzyl)-N-(p-tolyl)acetamide]	107 nM	3200 nM	29	–	–
CCN(CC)c1ccc(CN(C(=O)Cc2ccc(Cl)cc2)c2ccc(Cl)cc2)cc1 [Compound 88, N,2-bis(4-Chlorophenyl)-N-(4-(diethylamino)benzyl)acetamide]	136 nM	> 20000 nM	147	–	–
O=C(Cc1ccccc1)NC(NC(=O)Cc1ccccc1)c1ccccc1F [Compound 3, N,N′-((2-fluorophenyl)methylene)bis(2-phenylacetamide)]	35300 nM	–	–	–	–
O=C(Cc1ccccc1)NC(NC(=O)Cc1ccccc1)c1ccccc1 [Compound 2, N,N′-(phenylmethylene)bis(2-phenylacetamide)]	9930 nM	–	–	–	–

— patent US9376380B2 (University of Pittsburgh—Of the Commonwealth System of …, priority 2011, dated 2016)
